Measured values from US8071584B2 (GlaxoSmithKline LLC, priority 2007, dated 2011).

What follows are molecules tested on human monocyte stimulated cytokine production (TNF-α) (assay: Monocyte assay (LPS-stimulated TNF-α production)). Details: 300 nM, human monocytes, LPS.
Assay type: cell-based
Method: Effect of IKK-β inhibition on human monocyte stimulated cytokine production was assessed as follows: Monocytes were isolated from heparinized whole blood by Ficoll gradient, followed by purification of CD14+ cells using MACS magnetic cell separation beads. Isolated monocytes were then adhered to 96-well culture plates at 1×10^6 cells/mL in RPMI 1640 10% FBS (JRH Biosciences, Lenexa Kans.) for 2 h. Test compounds are added to the wells 30 minutes prior to stimulation with a final vehicle concentration of 0.1% DMSO. Monocytes were activated by the addition of 200 ng/mL endotoxin (LPS; E. coli serotype 026:B6) (Sigma, St. Louis, Mo.) and incubated for 24 hrs at 37 C. Cell-free supernates were analyzed by Alphascreen™ (Perkin Elmer, Waltham, Mass.) for TNF-α using R&D Systems matched pair Abs. Viability of the cells was determined by 10% trypan blue exclusion.

SMILES	inhibition at 0.3 µM [%]
CC(C)[C@H]1C[C@H](c2c[nH]c3c(C(N)=O)cc(-c4ccccc4)cc23)CCS1(=O)=O (racemic) [Example 242, racemic-3-[(trans)-2-(1-Methylethyl)-1,1-dioxidotetrahydro-2H-thiopyran-4-yl]-5-phenyl-1H-indole-7-carboxamide]	0 to 100
CC(C)[C@H]1CC(c2c[nH]c3c(C(N)=O)cc(-c4ccoc4)cc23)CCS1(=O)=O (mixture of isomers) [Example 243, (mixture of isomers)-5-(3-Furanyl)-3-[trans-2-(1-methylethyl)-1,1-dioxidotetrahydro-2H-thiopyran-4-yl]-1H-indole-7-carboxamide]	0 to 100
NC(=O)c1cc(-c2csc(CN3CCC3)c2)cc2c(C3CCS(=O)(=O)CC3)c[nH]c12 [Example 70, 5-[5-(1-Azetidinylmethyl)-3-thienyl]-3-(1,1-dioxidotetrahydro-2H-thiopyran-4-yl)-1H-indole-7-carboxamide]	0 to 100
CN(CCOC(C)(C)C)Cc1cc(-c2cc(C(N)=O)c3[nH]cc(C4CCS(=O)(=O)CC4)c3c2)cs1 [Example 77, 5-(5-{[{2-[(1,1-Dimethylethyl)oxy]ethyl}(methyl)amino]methyl}-3-thienyl)-3-(1,1-dioxidotetrahydro-2H-thiopyran-4-yl)-1H-indole-7-carboxamide]	0 to 100

Same assay, conditions: human CD14+ monocytes, 200 ng/mL LPS, 24 hrs, values given as 'about', read-out: pIC50 in the monocyte assay (converted)

IC50 [nM]	SMILES
5.01 to 1000	NC(=O)c1cc(-c2ccc(F)cc2)cc2c(C3CCS(=O)(=O)C3)c[nH]c12 (racemic) [Example 171, (rac)-3-(1,1-Dioxidotetrahydro-3-thienyl)-5-(4-fluorophenyl)-1H-indole-7-carboxamide]
5.01 to 1000	CC(C)[C@H]1C[C@H](c2c[nH]c3c(C(N)=O)cc(-c4ccsc4)cc23)CCS1(=O)=O (racemic) [Example 241, (racemic)-3-[trans-2-(1-Methylethyl)-1,1-dioxidotetrahydro-2H-thiopyran-4-yl]-5-(3-thienyl)-1H-indole-7-carboxamide]
5.01 to 1000	CC(C)[C@H]1C[C@H](c2c[nH]c3c(C(N)=O)cc(-c4ccco4)cc23)CCS1(=O)=O (racemic) [Example 244, (racemic)-5-(2-Furanyl)-3-[trans-2-(1-methylethyl)-1,1-dioxidotetrahydro-2H-thiopyran-4-yl]-1H-indole-7-carboxamide]
5.01 to 1000	CC(C)[C@H]1C[C@H](c2c[nH]c3c(C(N)=O)cc(-c4cccs4)cc23)CCS1(=O)=O (racemic) [Example 245, (racemic)-3-[trans-2-(1-Methylethyl)-1,1-dioxidotetrahydro-2H-thiopyran-4-yl]-5-(2-thienyl)-1H-indole-7-carboxamide]
5.01 to 1000	CC(C)[C@@H]1C[C@H](c2c[nH]c3c(C(N)=O)cc(-c4ccsc4)cc23)CCS1(=O)=O (racemic) [Example 246, (racemic)-3-[cis-2-(1-Methylethyl)-1,1-dioxidotetrahydro-2H-thiopyran-4-yl]-5-(3-thienyl)-1H-indole-7-carboxamide]
5.01 to 1000	NC(=O)c1cc(-c2cccs2)cc2c([C@H]3CCS(=O)(=O)[C@@H](c4ccccc4)C3)c[nH]c12 (racemic) [Example 249, 3-(1,1-Dioxido-2-cis-phenyltetrahydro-2H-thiopyran-4-yl)-5-(2-thienyl)-1H-indole-7-carboxamide]
5.01 to 1000	NC(=O)c1cc(-c2ccoc2)cc2c([C@H]3CCS(=O)(=O)[C@@H](c4ccccc4)C3)c[nH]c12 (racemic) [Example 250, 3-(1,1-Dioxido-2-cis-phenyltetrahydro-2H-thiopyran-4-yl)-5-(3-furanyl)-1H-indole-7-carboxamide]
5.01 to 1000	NC(=O)c1cc(-c2ccco2)cc2c([C@H]3CCS(=O)(=O)[C@@H](c4ccccc4)C3)c[nH]c12 (racemic) [Example 251, 3-(1,1-Dioxido-2-phenyltetrahydro-2H-thiopyran-4-yl)-5-(2-furanyl)-1H-indole-7-carboxamide]
5.01 to 1000	NC(=O)c1cc(-c2ccccc2)cc2c([C@H]3CCS(=O)(=O)[C@@H](c4ccccc4)C3)c[nH]c12 (racemic) [Example 252, 3-(1,1-Dioxido-2-phenyltetrahydro-2H-thiopyran-4-yl)-5-phenyl-1H-indole-7-carboxamide]
> 1000	NC(=O)c1cc(-c2nc(Br)cs2)cc2c(C3CCS(=O)(=O)CC3)c[nH]c12 [Example 83, 5-(4-Bromo-1,3-thiazol-2-yl)-3-(1,1-dioxidotetrahydro-2H-thiopyran-4-yl)-1H-indole-7-carboxamide]
5.01 to 1000	NC(=O)c1cc(-c2csc(CCCO)c2)cc2c(C3CCS(=O)(=O)CC3)c[nH]c12 [Example 84, 3-(1,1-Dioxidotetrahydro-2H-thiopyran-4-yl)-5-[5-(3-hydroxypropyl)-3-thienyl]-1H-indole-7-carboxamide]

Second part, the molecule before the results:

SMILES	IC50 [nM]
NC(=O)c1cc(-c2ccccc2)cc2c(C3CCS(=O)(=O)CC3)c[nH]c12 [Example 1, 3-(1,1-Dioxidotetrahydro-2H-thiopyran-4-yl)-5-phenyl-1H-indole-7-carboxamide]	5.01 to 1000
N#CCc1ccc(-c2cc(C(N)=O)c3[nH]cc(C4CCS(=O)(=O)CC4)c3c2)cc1 [Example 65, 5-[4-(Cyanomethyl)phenyl]-3-(1,1-dioxidotetrahydro-2H-thiopyran-4-yl)-1H-indole-7-carboxamide]	5.01 to 1000
CC(C)(O)CCc1ccc(-c2cc(C(N)=O)c3[nH]cc(C4CCS(=O)(=O)CC4)c3c2)s1 [Example 66, 3-(1,1-Dioxidotetrahydro-2H-thiopyran-4-yl)-5-[5-(3-hydroxy-3-methylbutyl)-2-thienyl]-1H-indole-7-carboxamide]	5.01 to 1000
CN(C)c1ccc(-c2cc(C(N)=O)c3[nH]cc(C4CCS(=O)(=O)CC4)c3c2)cn1 [Example 67, 5-[6-(Dimethylamino)-3-pyridinyl]-3-(1,1-dioxidotetrahydro-2H-thiopyran-4-yl)-1H-indole-7-carboxamide]	5.01 to 1000
NC(=O)c1cc(-c2ccnc(Cl)c2)cc2c(C3CCS(=O)(=O)CC3)c[nH]c12 [Example 68, 5-(2-Chloro-4-pyridinyl)-3-(1,1-dioxidotetrahydro-2H-thiopyran-4-yl)-1H-indole-7-carboxamide]	5.01 to 1000
NC(=O)c1cc(-c2ccc3c(c2)CCO3)cc2c(C3CCS(=O)(=O)CC3)c[nH]c12 [Example 69, 5-(2,3-Dihydro-1-benzofuran-5-yl)-3-(1,1-dioxidotetrahydro-2H-thiopyran-4-yl)-1H-indole-7-carboxamide]	5.01 to 1000
COCCN(C)Cc1cc(-c2cc(C(N)=O)c3[nH]cc(C4CCS(=O)(=O)CC4)c3c2)cs1 [Example 71, 3-(1,1-Dioxidotetrahydro-2H-thiopyran-4-yl)-5-[5-({methyl[2-(methyloxy)ethyl]amino}methyl)-3-thienyl]-1H-indole-7-carboxamide]	5.01 to 1000
NC(=O)c1cc(-c2csc(CN3CCCCCC3)c2)cc2c(C3CCS(=O)(=O)CC3)c[nH]c12 [Example 72, 3-(1,1-Dioxidotetrahydro-2H-thiopyran-4-yl)-5-[5-(hexahydro-1H-azepin-1-ylmethyl)-3-thienyl]-1H-indole-7-carboxamide]	5.01 to 1000
CN(C)Cc1cc(-c2cc(C(N)=O)c3[nH]cc(C4CCS(=O)(=O)CC4)c3c2)cs1 [Example 73, 5-{5-[(Dimethylamino)methyl]-3-thienyl}-3-(1,1-dioxidotetrahydro-2H-thiopyran-4-yl)-1H-indole-7-carboxamide]	5.01 to 1000
CC(C)N(C)Cc1cc(-c2cc(C(N)=O)c3[nH]cc(C4CCS(=O)(=O)CC4)c3c2)cs1 [Example 74, 3-(1,1-Dioxidotetrahydro-2H-thiopyran-4-yl)-5-(5-{[methyl(1-methylethyl)amino]methyl}-3-thienyl)-1H-indole-7-carboxamide]	5.01 to 1000
CCN(C)Cc1cc(-c2cc(C(N)=O)c3[nH]cc(C4CCS(=O)(=O)CC4)c3c2)cs1 [Example 75, 3-(1,1-Dioxidotetrahydro-2H-thiopyran-4-yl)-5-(5-{[ethyl(methyl)amino]methyl}-3-thienyl)-1H-indole-7-carboxamide]	5.01 to 1000
CCN(CC)Cc1cc(-c2cc(C(N)=O)c3[nH]cc(C4CCS(=O)(=O)CC4)c3c2)cs1 [Example 76, 5-{5-[(diethylamino)methyl]-3-thienyl}-3-(1,1-dioxidotetrahydro-2H-thiopyran-4-yl)-1H-indole-7-carboxamide]	5.01 to 1000
CNCc1cccc(-c2cc(C(N)=O)c3[nH]cc(C4CCS(=O)(=O)CC4)c3c2)c1 [Example 78, 3-(1,1-Dioxidotetrahydro-2H-thiopyran-4-yl)-5-{3-[(methylamino)methyl]phenyl}-1H-indole-7-carboxamide]	5.01 to 1000
CN(C)Cc1cccc(-c2cc(C(N)=O)c3[nH]cc(C4CCS(=O)(=O)CC4)c3c2)c1 [Example 79]	5.01 to 1000
CC(C)[C@H](C)NCc1cccc(-c2cc(C(N)=O)c3[nH]cc(C4CCS(=O)(=O)CC4)c3c2)c1 [Example 80, 5-[3-({[(1S)-1,2-Dimethylpropyl]amino}methyl)phenyl]-3-(1,1-dioxidotetrahydro-2H-thiopyran-4-yl)-1H-indole-7-carboxamide]	5.01 to 1000
NC(=O)c1cc(-c2ccc(S(=O)(=O)N3CCC3)s2)cc2c(C3CCS(=O)(=O)CC3)c[nH]c12 [Example 81, 5-[5-(1-Azetidinylsulfonyl)-2-thienyl]-3-(1,1-dioxidotetrahydro-2H-thiopyran-4-yl)-1H-indole-7-carboxamide]	5.01 to 1000
NC(=O)c1cc(-c2ccc3[nH]ncc3c2)cc2c(C3CCS(=O)(=O)CC3)c[nH]c12 [Example 82, 3-(1,1-Dioxidotetrahydro-2H-thiopyran-4-yl)-5-(1H-indazol-5-yl)-1H-indole-7-carboxamide]	5.01 to 1000
